{"source": "ChEMBL document CHEMBL3885881", "about": "“DrugMatrix”", "species_on_record": "Rattus norvegicus", "format": "toxicity, organism-based, Sprague-Dawley", "conditions": "in vivo, 0 mg/kg, 24 h, dose level Control, time 1 day, vehicle 100 % SALINE", "key": {"[1]": {"conditions": "iv, vehicle control, tissue Blood"}, "[2]": {"conditions": "iv, vehicle control, tissue Plasma"}, "[3]": {"conditions": "sc, tissue Blood, route mini-PUMP - SUBCUTANEOUS"}, "[4]": {"conditions": "sc, tissue Plasma, route mini-PUMP - SUBCUTANEOUS"}}, "description": "DrugMatrix - Regimen: Single", "data": [{"compound": "CC(=O)[C@]1(O)Cc2c(O)c3c(c(O)c2[C@@H](O[C@H]2C[C@H](N)[C@H](O)[C@H](C)O2)C1)C(=O)c1ccccc1C3=O", "note": "[IDARUBICIN]", "values": [{"measurement": "ABSOLUTE BASOPHIL", "setting": "[1]", "result": 280, "unit": "cells/µL"}, {"measurement": "ABSOLUTE EOSINOPHIL", "setting": "[1]", "result": 75, "unit": "cells/µL"}, {"measurement": "ABSOLUTE LYMPHOCYTE", "setting": "[1]", "result": 9060, "unit": "cells/µL"}, {"measurement": "ABSOLUTE MONOCYTE", "setting": "[1]", "result": 260, "unit": "cells/µL"}, {"measurement": "BASOPHIL", "setting": "[1]", "result": 2.17, "unit": "%"}, {"measurement": "EOSINOPHIL", "setting": "[1]", "result": 0.62, "unit": "%"}, {"measurement": "ERYTHROCYTE COUNT", "setting": "[1]", "result": 6.64, "unit": "x10E6/uL"}, {"measurement": "HEMATOCRIT", "setting": "[1]", "result": 42.6, "unit": "%"}, {"measurement": "HEMOGLOBIN", "setting": "[1]", "result": 13.5, "unit": "G/DL"}, {"measurement": "LEUKOCYTE COUNT", "setting": "[1]", "result": 11.87, "unit": "x10E3/uL"}, {"measurement": "LYMPHOCYTE", "setting": "[1]", "result": 76.3, "unit": "%"}, {"measurement": "MEAN CORPUSCULAR HEMOGLOBIN", "setting": "[1]", "result": 20.37, "unit": "pg"}, {"measurement": "MEAN CORPUSCULAR HEMOGLOBIN CONCENTRATION", "setting": "[1]", "result": 31.75, "unit": "G/DL"}, {"measurement": "MEAN CORPUSCULAR VOLUME", "setting": "[1]", "result": 64.17, "unit": "fL"}, {"measurement": "MONOCYTE", "setting": "[1]", "result": 2.1, "unit": "%"}, {"measurement": "NEUTROPHIL", "setting": "[1]", "result": 16.75, "unit": "%"}, {"measurement": "PLATELET COUNT", "setting": "[1]", "result": 1144.5, "unit": "x10E3/uL"}, {"measurement": "ALANINE AMINOTRANSFERASE", "setting": "[2]", "result": 42.75, "unit": "u/L"}, {"measurement": "ALBUMIN", "setting": "[2]", "result": 3.6, "unit": "G/DL"}, {"measurement": "ALKALINE PHOSPHATASE", "setting": "[2]", "result": 314.75, "unit": "u/L"}, {"measurement": "ASPARTATE AMINOTRANSFERASE", "setting": "[2]", "result": 66.5, "unit": "u/L"}, {"measurement": "BLOOD UREA NITROGEN", "setting": "[2]", "result": 14, "unit": "mg/dL"}, {"measurement": "CARBON DIOXIDE", "setting": "[2]", "result": 37.5, "unit": "mmol/L"}, {"measurement": "CHLORIDE", "setting": "[2]", "result": 108, "unit": "MEQ/L"}, {"measurement": "CHOLESTEROL", "setting": "[2]", "result": 74.25, "unit": "mg/dL"}, {"measurement": "CREATINE PHOSPHOKINASE", "setting": "[2]", "result": 271, "unit": "u/L"}, {"measurement": "CREATININE", "setting": "[2]", "result": 0.65, "unit": "mg/dL"}, {"measurement": "GLUCOSE", "setting": "[2]", "result": 171, "unit": "mg/dL"}, {"measurement": "LACTATE DEHYDROGENASE", "setting": "[2]", "result": 125.75, "unit": "u/L"}, {"measurement": "LIPASE", "setting": "[2]", "result": 27.5, "unit": "u/L"}, {"measurement": "PHOSPHORUS", "setting": "[2]", "result": 11.25, "unit": "mg/dL"}, {"measurement": "POTASSIUM", "setting": "[2]", "result": 6.72, "unit": "MEQ/L"}, {"measurement": "SODIUM", "setting": "[2]", "result": 153.5, "unit": "MEQ/L"}, {"measurement": "TOTAL BILIRUBIN", "setting": "[2]", "result": 0.23, "unit": "mg/dL"}, {"measurement": "TOTAL PROTEIN", "setting": "[2]", "result": 6.2, "unit": "G/DL"}, {"measurement": "URIC ACID", "setting": "[2]", "result": 0.85, "unit": "mg/dL"}]}, {"compound": "CNC[C@H](O)c1ccc(O)c(O)c1", "note": "[EPINEPHRINE]", "values": [{"measurement": "ABSOLUTE EOSINOPHIL", "setting": "[3]", "result": 26.17, "unit": "CELLS/uL"}, {"measurement": "ABSOLUTE LYMPHOCYTE", "setting": "[3]", "result": 10985.83, "unit": "CELLS/uL"}, {"measurement": "ABSOLUTE MONOCYTE", "setting": "[3]", "result": 234.5, "unit": "CELLS/uL"}, {"measurement": "ABSOLUTE SEGMENTED NEUTROPHIL", "setting": "[3]", "result": 1753.5, "unit": "CELLS/uL"}, {"measurement": "BASOPHIL", "setting": "[3]", "result": 0, "unit": "%"}, {"measurement": "EOSINOPHIL", "setting": "[3]", "result": 0.17, "unit": "%"}, {"measurement": "ERYTHROCYTE COUNT", "setting": "[3]", "result": 5.64, "unit": "x10E6/uL"}, {"measurement": "HEMOGLOBIN", "setting": "[3]", "result": 12.68, "unit": "G/DL"}, {"measurement": "LEUKOCYTE COUNT", "setting": "[3]", "result": 13, "unit": "x10E3/uL"}, {"measurement": "LYMPHOCYTE", "setting": "[3]", "result": 84.5, "unit": "%"}, {"measurement": "MEAN CORPUSCULAR HEMOGLOBIN", "setting": "[3]", "result": 22.5, "unit": "pg"}, {"measurement": "MEAN CORPUSCULAR HEMOGLOBIN CONCENTRATION", "setting": "[3]", "result": 36.78, "unit": "G/DL"}, {"measurement": "MEAN CORPUSCULAR VOLUME", "setting": "[3]", "result": 61.18, "unit": "fL"}, {"measurement": "NEUTROPHIL", "setting": "[3]", "result": 13.5, "unit": "%"}, {"measurement": "NUCLEATED RED BLOOD CELLS", "setting": "[3]", "result": "0.17 /100WBC"}, {"measurement": "PLATELET COUNT", "setting": "[3]", "result": 679.17, "unit": "x10E3/uL"}, {"measurement": "ALANINE AMINOTRANSFERASE", "setting": "[4]", "result": 42.67, "unit": "u/L"}, {"measurement": "ALBUMIN", "setting": "[4]", "result": 3.77, "unit": "G/DL"}, {"measurement": "ALKALINE PHOSPHATASE", "setting": "[4]", "result": 291.17, "unit": "u/L"}, {"measurement": "ASPARTATE AMINOTRANSFERASE", "setting": "[4]", "result": 74.5, "unit": "u/L"}, {"measurement": "BLOOD UREA NITROGEN", "setting": "[4]", "result": 15.33, "unit": "mg/dL"}, {"measurement": "CARBON DIOXIDE", "setting": "[4]", "result": 30, "unit": "mmol/L"}, {"measurement": "CHLORIDE", "setting": "[4]", "result": 100.83, "unit": "MEQ/L"}, {"measurement": "CHOLESTEROL", "setting": "[4]", "result": 65.33, "unit": "mg/dL"}, {"measurement": "CREATININE", "setting": "[4]", "result": 0.15, "unit": "mg/dL"}, {"measurement": "LACTATE DEHYDROGENASE", "setting": "[4]", "result": 162.67, "unit": "u/L"}, {"measurement": "LIPASE", "setting": "[4]", "result": 8.5, "unit": "u/L"}, {"measurement": "PHOSPHORUS", "setting": "[4]", "result": 12.2, "unit": "mg/dL"}, {"measurement": "POTASSIUM", "setting": "[4]", "result": 5.73, "unit": "MEQ/L"}, {"measurement": "SODIUM", "setting": "[4]", "result": 144.7, "unit": "MEQ/L"}, {"measurement": "TOTAL BILIRUBIN", "setting": "[4]", "result": 0.15, "unit": "mg/dL"}, {"measurement": "TOTAL PROTEIN", "setting": "[4]", "result": 5.87, "unit": "G/DL"}, {"measurement": "URIC ACID", "setting": "[4]", "result": 1.93, "unit": "mg/dL"}]}]}
